# Assay results from patent US12590091B2, “1H-pyrrolo[3,2-C]pyridine and 1H-pyrrolo[2,3-C]pyridine derivatives as TLR9 inhibitors for the treatment of fibrosis” (BRISTOL-MYERS SQUIBB COMPANY, priority 2020, dated 2026).
# Target: T1, human TLR8 (Homo sapiens, UniProt Q9NR97)
# T1 construct: host or cells: HEK-Blue cells
# T1 sequence (Q9NR97 27-1041): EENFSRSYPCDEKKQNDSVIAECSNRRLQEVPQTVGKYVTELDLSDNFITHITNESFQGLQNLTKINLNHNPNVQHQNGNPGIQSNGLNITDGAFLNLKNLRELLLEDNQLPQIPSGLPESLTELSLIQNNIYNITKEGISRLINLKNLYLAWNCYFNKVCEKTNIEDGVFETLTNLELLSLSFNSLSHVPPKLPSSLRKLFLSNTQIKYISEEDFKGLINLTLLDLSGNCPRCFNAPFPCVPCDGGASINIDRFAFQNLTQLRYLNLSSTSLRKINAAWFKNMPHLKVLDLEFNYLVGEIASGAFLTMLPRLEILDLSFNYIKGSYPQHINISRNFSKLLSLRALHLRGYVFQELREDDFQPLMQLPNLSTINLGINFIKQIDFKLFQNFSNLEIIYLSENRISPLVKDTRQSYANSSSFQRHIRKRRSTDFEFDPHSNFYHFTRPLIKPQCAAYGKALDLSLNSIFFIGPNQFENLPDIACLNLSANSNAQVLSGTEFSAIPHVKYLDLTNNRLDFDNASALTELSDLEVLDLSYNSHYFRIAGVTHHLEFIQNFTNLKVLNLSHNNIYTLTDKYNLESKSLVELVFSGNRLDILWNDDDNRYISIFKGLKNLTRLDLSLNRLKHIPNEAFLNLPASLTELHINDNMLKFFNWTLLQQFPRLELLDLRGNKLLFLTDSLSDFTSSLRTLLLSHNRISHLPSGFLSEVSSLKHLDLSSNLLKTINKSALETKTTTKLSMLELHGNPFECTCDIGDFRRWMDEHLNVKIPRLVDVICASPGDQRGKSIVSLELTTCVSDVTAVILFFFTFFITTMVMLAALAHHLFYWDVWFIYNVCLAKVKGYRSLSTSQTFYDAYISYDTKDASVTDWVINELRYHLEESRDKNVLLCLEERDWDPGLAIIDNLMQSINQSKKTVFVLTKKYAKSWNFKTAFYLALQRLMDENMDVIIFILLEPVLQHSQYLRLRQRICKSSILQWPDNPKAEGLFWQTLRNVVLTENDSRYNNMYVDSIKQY
# Experiment: TLR8 inhibition reporter assay (HEK-Blue cells, SEAP reporter)
# Type: cell-based
# Settings: HEK-Blue cells overexpressing human TLR8, stimulated with R848 15.9 μM, 22 hour incubation
# Method: TLR7/8/9 Inhibition Reporter Assays
# HEK-Blue™-cells (Invivogen) overexpressing human TLR7, TLR8 or TLR9 receptors were used for screening inhibitors of these receptors using an inducible SEAP (secreted embryonic alkaline phosphatase) reporter gene under the control of the IFN-β minimal promoter fused to five NF-κB and AP-1-binding sites. Briefly, cells are seeded into Greiner 384 well plates (15000 cells per well for TLR7, 20,000 for TLR8 and 25,000 for TLR9) and then treated with test compounds in DMSO to yield a final dose response concentration range of 0.05 nM-50 μM. After a 30 minute compound pre-treatment at room temperature, the cells are then stimulated with a TLR7 ligand (gardiquimod at a final concentration of 7.5 μM), TLR8 ligand (R848 at a final concentration of 15.9 μM) or TLR9 ligand (ODN2006 at a final concentration of 5 nM) to activate NF-κB and AP-1 which induce the production of SEAP. After a 22 hour incubation at 37° C., 5% CO2, SEAP levels are determined with the addition of HEK-Blue™ Detection reagent (Invivogen), a cell culture medium that allows for detection of SEAP, according to manufacturer's specifications. The percent inhibition is determined as the % reduction in the HEK-Blue signal present in wells treated with agonist plus DMSO alone compared to wells treated with a known inhibitor.
row,Compound,IC50
1,"COc1ccc(-c2c(C)n(C)c3cnc(C4CCN(C5CCN(C(=O)C(C)C)CC5)CC4)cc23)cc1OC [Example 18, 1-(4-(3-(3,4-dimethoxyphenyl)-1,2-dimethyl-1H-pyrrolo[2,3-c]pyridin-5-yl)-[1,4′-bipiperidin]-1′-yl)-2-methylpropan-1-one]",> 50 µM
2,"Cc1nc(-c2ccc(C3(O)CCN(C(C)(C)C)CC3)cc2F)cc2c1cc(-c1ccc(S(C)(=O)=O)cc1)n2C [Example 108, 1-(tert-butyl)-4-(4-(1,4-dimethyl-2-(4-(methylsulfonyl)phenyl)-1H-pyrrolo[3,2-c]pyridin-6-yl)-3-fluorophenyl)piperidin-4-ol]",1.5 µM
3,"COc1ccc(-c2cc3cnc(-c4ccc(N5CCN(C(C)C)CC5)nc4)cc3n2C)cc1OC [Example 31, 2-(3,4-dimethoxyphenyl)-6-(6-(4-isopropylpiperazin-1-yl)pyridin-3-yl)-1-methyl-1H-pyrrolo[3,2-c]pyridine]",1.7 µM
4,"Cc1nc(-c2ccc(CN3CCN(CCCO)CC3)cc2)cc2c1cc(-c1ccc(S(C)(=O)=O)cc1)n2C [Example 58, 3-(4-(4-(1,4-dimethyl-2-(4-(methylsulfonyl)phenyl)-1H-pyrrolo[3,2-c]pyridin-6-yl)benzyl)piperazin-1-yl)propan-1-ol]",17.8 µM
5,"CCN1C2CCC1CC(O)(c1ccc(-c3cc4c(cc(-c5ccc(S(C)(=O)=O)cc5)n4C)c(C)n3)cc1F)C2 [Example 101, (1R,3r,5S)-3-(4-(1,4-dimethyl-2-(4-(methylsulfonyl)phenyl)-1H-pyrrolo[3,2-c]pyridin-6-yl)-2-fluorophenyl)-8-ethyl-8-azabicyclo[3.2.1]octan-3-ol]",5.1 µM
6,"Cc1nc(-c2ccc(N3CC4CCC(C3)N4CCCO)cc2)cc2c1cc(-c1ccc(S(C)(=O)=O)cc1)n2C [Example 76, 3-(3-(4-(1,4-dimethyl-2-(4-(methylsulfonyl)phenyl)-1H-pyrrolo[3,2-c]pyridin-6-yl)phenyl)-3,8-diazabicyclo[3.2.1]octan-8-yl)propan-1-ol]",18.3 µM
7,"Cc1nc(-c2ccc(N3CCN(CC(C)C)CC3)c(F)c2F)cc2c1cc(-c1ccc(S(C)(=O)=O)cc1)n2C [Example 82, 6-(2,3-difluoro-4-(4-isobutylpiperazin-1-yl)phenyl)-1,4-dimethyl-2-(4-(methylsulfonyl)phenyl)-1H-pyrrolo[3,2-c]pyridine]",> 50 µM
8,"CC(C)N1CCN(c2ccc(-c3cc4c(cc(-c5ccc(S(C)(=O)=O)cc5)n4C)c(C(C)(C)O)n3)cc2)CC1 [Example 118, 2-[6-[4-(4-isopropylpiperazin-1-yl)phenyl]-1-methyl-2-(4-methylsulfonylphenyl)pyrrolo[3,2-c]pyridin-4-yl]propan-2-ol]",8.1 µM
9,"COc1ccc(-c2c(C)[nH]c3cnc(C4CCN(C(=O)C5CCN(C6CC6)CC5)CC4)cc23)cc1OC [Example 5, (1-Cyclopropylpiperidin-4-yl)(4-(3-(3,4-dimethoxyphenyl)-2-methyl-1H-pyrrolo[2,3-c]pyridin-5-yl)piperidin-1-yl)methanone]",> 50 µM
10,"Cc1nc(-c2cc(F)c(N3CCN(CCCO)CC3)cc2F)cc2c1cc(-c1ccc(S(C)(=O)=O)cc1)n2C [Example 56, 3-(4-(4-(1,4-dimethyl-2-(4-(methylsulfonyl)phenyl)-1H-pyrrolo[3,2-c]pyridin-6-yl)-2,5-difluorophenyl)piperazin-1-yl)propan-1-ol]",13.2 µM
11,"Cc1nc(-c2ccc(N3CCN(C4CCOC4)CC3)cc2)cc2c1cc(-c1ccc(S(C)(=O)=O)cc1)n2C (stereo not drawn) [Example 37, 1,4-dimethyl-2-(4-(methylsulfonyl)phenyl)-6-(4-(4-(tetrahydrofuran-3-yl)piperazin-1-yl)phenyl)-1H-pyrrolo[3,2-c]pyridine]",> 25 µM
12,"COc1ccc(-c2c(C)n(C)c3cnc(C4CCN(C5CCN(CC(C)C)CC5)CC4)cc23)cc1OC [Example 17, 3-(3,4-dimethoxyphenyl)-5-(1′-isobutyl-[1,4′-bipiperidin]-4-yl)-1,2-dimethyl-1H-pyrrolo[2,3-c]pyridine]",> 50 µM
